Data set [1] concerns APP IRE RNA (RNA, mRNA element) GGUGGCGGCGCGGGCAGAGCAAGGACGCGGCGGAU
The experiment in a line: microscale thermophoresis, labelled IRP1. Conditions: 150 mM NaCl; binds IRP1/RNA complex, RNA alone not tested; 2 nM IRP1, 600 nM RNA; 25 mM Tris pH 7.4, 0.1% Prionex. In general terms: MST reads how a fluorescent partner responds to local heating, with and without ligand.

Data set [2] concerns H-ferritin IRE RNA (RNA, mRNA element) GGGGUUUCCUGCUUCAACAGUGCUUGGACGGAACC
In words: microscale thermophoresis, labelled IRP1. Conditions: 150 mM NaCl; IRP1/RNA complex, RNA alone not tested; 2 nM IRP1, 250 nM RNA; same buffer; Posiphen to 50 µM.

The target of data set [3] is T1, IRP1 (iron regulatory protein 1) (UniProt P21399 1-889).
T1 sequence: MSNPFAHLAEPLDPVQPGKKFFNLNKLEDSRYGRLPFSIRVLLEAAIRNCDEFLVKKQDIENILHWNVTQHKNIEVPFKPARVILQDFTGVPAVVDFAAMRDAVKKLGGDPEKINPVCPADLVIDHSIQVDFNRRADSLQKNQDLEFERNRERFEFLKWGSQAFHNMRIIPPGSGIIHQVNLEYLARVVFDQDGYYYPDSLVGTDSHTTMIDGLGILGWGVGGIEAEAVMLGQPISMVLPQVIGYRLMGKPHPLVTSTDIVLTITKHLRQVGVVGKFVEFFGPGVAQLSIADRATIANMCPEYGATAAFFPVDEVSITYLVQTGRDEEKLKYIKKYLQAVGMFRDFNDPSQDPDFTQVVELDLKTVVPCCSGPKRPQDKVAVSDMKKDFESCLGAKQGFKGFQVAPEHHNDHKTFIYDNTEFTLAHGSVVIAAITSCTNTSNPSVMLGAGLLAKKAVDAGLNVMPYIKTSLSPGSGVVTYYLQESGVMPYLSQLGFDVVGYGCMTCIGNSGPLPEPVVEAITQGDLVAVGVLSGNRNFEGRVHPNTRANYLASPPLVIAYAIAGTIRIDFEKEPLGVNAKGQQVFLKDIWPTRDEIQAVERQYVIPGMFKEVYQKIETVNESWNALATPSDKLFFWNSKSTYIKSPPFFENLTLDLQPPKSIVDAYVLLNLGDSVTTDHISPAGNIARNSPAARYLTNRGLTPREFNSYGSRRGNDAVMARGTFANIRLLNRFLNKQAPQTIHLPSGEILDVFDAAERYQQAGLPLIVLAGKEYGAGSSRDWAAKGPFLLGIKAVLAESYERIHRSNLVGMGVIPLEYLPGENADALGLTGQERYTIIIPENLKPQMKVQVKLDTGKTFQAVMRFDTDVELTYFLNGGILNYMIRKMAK
In words: MST; no Posiphen; MST: 2 nM labeled IRP1, 25 mM Tris pH 7.4, 150 mM NaCl, 0.1% Prionex, 10 min incubation; temperature not stated. Conditions: protein: commercial; hairpin.

`CN1CC[C@]2(C)c3cc(OC(=O)Nc4ccccc4)ccc3N(C)[C@H]12` showed a Kd in data set [1] of 3.2 nM. Moreover, in data set [2], the binding result is recorded as “no”. On to GGGGUUUCCUGCUUCAACAGUGCUUGGACGGAACC (structured_RNA) [H-ferritin IRE RNA (canonical)], for which, in data set [3], the Kd worked out at 88.5 nM. In turn, GGUGGCGGCGCGGGCAGAGCAAGGACGCGGCGGAU (structured_RNA) [APP IRE RNA (atypical)] had a Kd in data set [3] of 225 nM.

The values above are taken from paper PMC8708689.
